According to patent publication US20250339409A1, “USES OF PAN BET INHIBITORS” (VYNE THERAPEUTICS INC., priority 2021, published 2025):

Tested on: imiquimod-induced psoriasis
Test: Imiquimod-induced psoriasis (Th17 inflammation) model in mice, topical treatment once daily D7-D13: PASI, modified PASI, body weight, use of enrichment, TEWL
Assay type: in vivo
Design: key to Mean score use enrichment: 0 = no use of dental rolls to 4 = use of all 4; key to PASI Mean score values: sum of erythema, induration, peeling scores, each 0-3 (0 = none)
Details: imiquimod-induced mice
Protocol: Thirty-six (36) female Balb/c mice are weighed and randomly divided into 9 groups (n=4) according to body weight on D1. For mice of native group 1 and tolerance groups 8 and 9, no induction of psoriasis is performed between D1 and D13. Psoriasis is induced in groups 2 to 7 by once daily topical application for 13 days (from day 1 to day 13) of 65 mg of Aldara™ cream (5.0% imiquimod) onto the shaved and epilated back of mice. Before the first treatment, a second randomization of mice of the 6 imiquimod-induced psoriasis groups is performed according to the severity of psoriasis (PASI), and also the body weight of mice. Starting on day 7 and until day 13, 100 mg of test formulations […] and 65 mg of vehicle (groups 1 and […]) are topically administered once daily for 7 consecutive days onto the shaved back skin of mice. Several measurements are taken during treatment period from day 7 to day 14: psoriasis index (PASI), body weight, use of enrichment and mortality. At the end of treatment period, TEWL is assessed, and blood and skin samples are collected. Histological analysis of skin samples is used for microscopic scoring of psoriasis and the determination of the thickness of parakeratosis and epidermis and blood analysis is used for assessing the level of proinflammatory biomarkers (cytokines assays). The effect of treatment of psoriasis induced mice with BETi formulations at the four dose levels are compared with Dermoval® cream containing 0.05% clobetasol propionate (reference) and vehicle (positive control) and also with healthy mice treated with vehicle (negative control).
PASI scoring takes into account the following 3 parameters: the presence of erythema on the skin, induration of the skin (thickening) and peeling of the skin at the area of the induction of psoriasis.
The presence of erythema on the skin at the area of induction of psoriasis with the following scoring grid: • 0=no or no more erythema on the skin, • 1=weak erythema on the skin, • 2=moderate erythema on the skin, • 3=important erythema on the skin.
The presence of induration of the skin at the area of induction of psoriasis with the following scoring grid: • 0=no or no more induration of the skin, • 1=weak induration of the skin, • 2=moderate induration of the skin, • 3=important induration of the skin.
The presence of peeling of the skin at the area of induction of psoriasis with the following scoring grid: • 0=no or no more dryness/peeling of the skin, • 1=weak dryness/peeling of the skin, • 2=moderate dryness/peeling of the skin, • 3=important dryness/peeling of the skin.
The sum of the mean scores of these 3 parameters result in the mean PASI score.
One of the issues with a steroid is that it causes skin thinning and continues to have an effect on no longer inflamed skin and the model set up and measurements above are not designed to reflect this negative effect. Therefore, a modified PASI (mPASI) is calculated in the same the manner as mean PASI score but excludes the scoring for induration (thickening of the skin).
Mice are weighed three times during the week of D1 to D7, and then daily during the week of D7 to D13, as well as on the day D14 when they are sacrificed. It should be noted that a characteristic body weight loss of mice is observed after the start of the induction of psoriasis, mainly during the first days following it. The body weight loss can reach between 10 to 15%.
For the duration of the experiment, dental rolls are used as enrichment and placed in each cage and replaced twice. Between D1 and D7, the number of dental rolls used by animals are determined twice in the morning, and are determined daily during D7 to D14, at the time of PASI or the tolerance assessment. The use of dental rolls is scored from 0=no use of dental rolls to 4=use of the 4 dental rolls. In the case where only half of a dental roll is used, a score of 0.5 is assigned. […]

SMILES: Cn1cc(-c2cccc(O)c2Oc2ccccc2)c2cc[nH]c2c1=O [BETi1]
- Modified PASI Mean score values (D 2, listed as BETI1 0.1%): 0.50
- PASI Mean score values (D 2, listed as BETI1 0.1%): 0.50
- Modified PASI Mean score values (D 2, listed as BETI1 1.0%): 1.00
- PASI Mean score values (D 2, listed as BETI1 1.0%): 1.00
- Mean score use enrichment (D 2, listed as BETi 0.001%): 0.25
- Mean score use enrichment (D 2, listed as BETi 0.01%): 0.50
- Mean score use enrichment (D 2, listed as BETi 0.1%): 0.75
- Modified PASI Mean score values (D 2, listed as BETi1 0.001%): 1.00
- PASI Mean score values (D 2, listed as BETi1 0.001%): 1.25
- Modified PASI Mean score values (D 2, listed as BETi1 0.01%): 0.25
- PASI Mean score values (D 2, listed as BETi1 0.01%): 0.25
- Mean score use enrichment (D 2, listed as BETi 1.0%): 0.75
- Modified PASI Mean score values (D 3, listed as BETI1 0.1%): 1.25
- PASI Mean score values (D 3, listed as BETI1 0.1%): 1.25
- Modified PASI Mean score values (D 3, listed as BETI1 1.0%): 1.25
- PASI Mean score values (D 3, listed as BETI1 1.0%): 1.25
- Mean score use enrichment (D 3, listed as BETi 0.001%): 0.75
- Mean score use enrichment (D 3, listed as BETi 0.01%): 0.50
- Mean score use enrichment (D 3, listed as BETi 0.1%): 1.25
- Modified PASI Mean score values (D 3, listed as BETi1 0.001%): 1.00
- PASI Mean score values (D 3, listed as BETi1 0.001%): 1.00
- Modified PASI Mean score values (D 3, listed as BETi1 0.01%): 1.25
- PASI Mean score values (D 3, listed as BETi1 0.01%): 1.25
- Mean score use enrichment (D 3, listed as BETi 1.0%): 1.00
- Modified PASI Mean score values (D 4): 2.75
- PASI Mean score values (D 4, listed as BETI1 0.1%): 3.00
- PASI Mean score values (D 4, listed as BETI1 1.0%): 3.25
- Mean score use enrichment (D 4, listed as BETi 0.001%): 1.00
- Mean score use enrichment (D 4, listed as BETi 0.01%): 0.75
- Mean score use enrichment (D 4, listed as BETi 0.1%): 1.25
- PASI Mean score values (D 4, listed as BETi1 0.001%): 3.25
- PASI Mean score values (D 4, listed as BETi1 0.01%): 3.25
- Mean score use enrichment (D 4, listed as BETi 1.0%): 1.00
- Modified PASI Mean score values (D 5, listed as BETI1 0.1%): 4.50
- PASI Mean score values (D 5, listed as BETI1 0.1%): 5.75
- Modified PASI Mean score values (D 5, listed as BETI1 1.0%): 4.00
- PASI Mean score values (D 5, listed as BETI1 1.0%): 5.50
- Mean score use enrichment (D 5, listed as BETi 0.001%): 1.25
- Mean score use enrichment (D 5, listed as BETi 0.01%): 0.75
- Mean score use enrichment (D 5, listed as BETi 0.1%): 0.50
- Modified PASI Mean score values (D 5, listed as BETi1 0.001%): 4.00
- PASI Mean score values (D 5, listed as BETi1 0.001%): 5.00
- Modified PASI Mean score values (D 5, listed as BETi1 0.01%): 4.00
- PASI Mean score values (D 5, listed as BETi1 0.01%): 5.25
- Mean score use enrichment (D 5, listed as BETi 1.0%): 1.50
- Modified PASI Mean score values (D 6, listed as BETI1 0.1%): 4.50
- PASI Mean score values (D 6, listed as BETI1 0.1%): 7.00
- Modified PASI Mean score values (D 6, listed as BETI1 1.0%): 4.75
- PASI Mean score values (D 6, listed as BETI1 1.0%): 7.25
- Mean score use enrichment (D 6, listed as BETi 0.001%): 1.25
- Mean score use enrichment (D 6, listed as BETi 0.01%): 1.25
- Mean score use enrichment (D 6, listed as BETi 0.1%): 0.75
- Modified PASI Mean score values (D 6, listed as BETi1 0.001%): 4.75
- PASI Mean score values (D 6, listed as BETi1 0.001%): 7.25
- Modified PASI Mean score values (D 6, listed as BETi1 0.01%): 4.75
- PASI Mean score values (D 6, listed as BETi1 0.01%): 7.00
- Mean score use enrichment (D 6, listed as BETi 1.0%): 1.50
